The term IC50 denotes the concentration that gives 50% inhibition.

The source made the active and inactive calls. The calls are words filed in the database; no cut-off is given here.

Data set [1] in a line: Permeability of compound across apical to basolateral side in human Caco2 cells. It is filed as ADME, cell-based. As to conditions: Caco-2, read-out: permeability.
Data set [2] is described as follows: Permeability of compound by PAMPA. It is filed as ADME. Conditions: read-out: permeability.
Data set [3] deals with CGRP receptor (CALCRL/RAMP1) (Homo sapiens). The experiment in a line: Displacement of [125I]CGRP from CGRP receptor in human SK-N-MC cells after 2 hrs by scintillation counter. A general note: In a radioligand displacement assay an active substance lowers the binding of a labelled ligand.
Data set [4] has as its system CGRP receptor (CALCRL/RAMP1) (Homo sapiens). Kind of data set: Antagonist activity at CGRP receptor (unknown origin).

Consider `Cc1cc(C[C@@H](NC(=O)N2CCC(c3ccc(C(F)(F)F)cc3C(F)(F)F)CC2)C(=O)N2CCC(N3CCCCC3)CC2)cc2cn[nH]c12`, for which, in data set [1], the Papp A→B was below 1.5 ×10⁻⁶ cm/s. For the same compound, the Papp in data set [2] turned out to be 7.1 ×10⁻⁶ cm/s.

As to `Cc1cc(C[C@@H](NC(=O)N2CCN(c3ccc(C#N)cc3)CC2)C(=O)N2CCC(N3CCCCC3)CC2)cc2cn[nH]c12`, in data set [3], the IC50 was 99 nM.

Consider `Cc1cc(C[C@@H](NC(=O)N2CCN(c3ccc(Cl)cc3Cl)CC2)C(=O)N2CCC(N3CCCCC3)CC2)cc2cn[nH]c12`, for which the IC50 in data set [3] is 4.3 nM. For the same compound, the Papp A→B in data set [1] was below 1.5 ×10⁻⁶ cm/s. Further, in data set [4], the outcome was Active. Also, in data set [2], the Papp was found to be 17 ×10⁻⁶ cm/s.

With `Cc1cc(C[C@@H](NC(=O)N2CCC(c3ccccc3)CC2)C(=O)N2CCC(N3CCCCC3)CC2)cc2cn[nH]c12`, in data set [3], the IC50 was 460 nM.

Take `Cc1cccc(C2CCN(C(=O)N[C@H](Cc3cc(C)c4[nH]ncc4c3)C(=O)N3CCC(N4CCCCC4)CC3)CC2)c1F`: the concentration for half-maximal inhibition (IC50) in data set [3] is 120 nM.

With `Cc1cc(C[C@@H](NC(=O)N2CCN(c3cccc(Cl)c3)CC2)C(=O)N2CCC(N3CCCCC3)CC2)cc2cn[nH]c12`, in data set [3], the IC50 is 19 nM. Also, the result in data set [4] was Active. Besides, the Papp in data set [2] worked out at 5.2 ×10⁻⁶ cm/s.

In the case of `Cc1cc(C[C@@H](NC(=O)N2CCN(c3ccccc3)CC2)C(=O)N2CCC(N3CCCCC3)CC2)cc2cn[nH]c12`, the IC50 in data set [3] is 44 nM.

As for `Cc1cc(C[C@@H](NC(=O)N2CCC(c3cccc(Cl)c3)CC2)C(=O)N2CCC(N3CCCCC3)CC2)cc2cn[nH]c12`, the IC50 in data set [3] was 150 nM.

With `Cc1cc(C[C@@H](NC(=O)N2CCN(c3ccc(F)cc3S(C)(=O)=O)CC2)C(=O)N2CCC(N3CCCCC3)CC2)cc2cn[nH]c12`, in data set [3], the IC50 is 2.9 nM.

As to `CCOC(=O)c1ccc(N2CCN(C(=O)N[C@H](Cc3cc(C)c4[nH]ncc4c3)C(=O)N3CCC(N4CCCCC4)CC3)CC2)cc1`, the IC50 in data set [3] was 44 nM.

`Cc1cc(C[C@@H](NC(=O)N2CCC(c3ccc4ccccc4c3)CC2)C(=O)N2CCC(N3CCCCC3)CC2)cc2cn[nH]c12`: in data set [1], the Papp A→B is below 1.5 ×10⁻⁶ cm/s. Further, in data set [2], the Papp turned out to be 6.1 ×10⁻⁶ cm/s.

Regarding `Cc1cc(C[C@@H](NC(=O)N2CCC(c3cc4ccccc4cc3Cl)CC2)C(=O)N2CCC(N3CCCCC3)CC2)cc2cn[nH]c12`, the IC50 in data set [3] is 0.23 nM. Further, the Papp A→B in data set [1] was below 1.5 ×10⁻⁶ cm/s. In addition, in data set [4], the outcome was Active. Besides, the Papp in data set [2] was determined as 5.7 ×10⁻⁶ cm/s.

In the case of `Cc1cc(C[C@@H](NC(=O)N2CCN(c3ccc(-c4ccccc4)cc3)CC2)C(=O)N2CCC(N3CCCCC3)CC2)cc2cn[nH]c12`, the IC50 in data set [3] was 46 nM.

With `Cc1cc(C[C@@H](NC(=O)N2CCN(c3ccccc3F)CC2)C(=O)N2CCC(N3CCCCC3)CC2)cc2cn[nH]c12`, the IC50 in data set [3] is 130 nM.

`Cc1cc(C[C@@H](NC(=O)N2CCC(c3ccc(F)cc3F)CC2)C(=O)N2CCC(N3CCCCC3)CC2)cc2cn[nH]c12`: the IC50 in data set [3] was 92 nM.

With `Cc1cc(C[C@@H](NC(=O)N2CCC(c3ccc(Cl)cc3Cl)CC2)C(=O)N2CCC(N3CCCCC3)CC2)cc2cn[nH]c12`, in data set [3], the IC50 was 1.1 nM. Moreover, the Papp A→B in data set [1] was below 1.5 ×10⁻⁶ cm/s. Further, the outcome in data set [4] was Active. In addition, the Papp in data set [2] stood at 2.4 ×10⁻⁶ cm/s.

Turning to `Cc1cc(C[C@@H](NC(=O)N2CCN(c3ccc(Cl)cc3)CC2)C(=O)N2CCC(N3CCCCC3)CC2)cc2cn[nH]c12`, in data set [3], the IC50 was 77 nM.

Consider `Cc1cc(C[C@@H](NC(=O)N2CCC(c3ccc(Cl)cc3)CC2)C(=O)N2CCC(N3CCCCC3)CC2)cc2cn[nH]c12`, for which, in data set [3], the IC50 was 41 nM.

As to `Cc1cc(C[C@@H](NC(=O)N2CCN(c3ccc(S(C)(=O)=O)cc3F)CC2)C(=O)N2CCC(N3CCCCC3)CC2)cc2cn[nH]c12`, the IC50 in data set [3] was 34 nM.

Consider `Cc1cc(C[C@@H](NC(=O)N2CCN(c3ccc(F)c(F)c3)CC2)C(=O)N2CCC(N3CCCCC3)CC2)cc2cn[nH]c12`, for which, in data set [3], the IC50 was 97 nM.

As for `Cc1cc(C[C@@H](NC(=O)N2CCC(c3cccc(Br)c3)CC2)C(=O)N2CCC(N3CCCCC3)CC2)cc2cn[nH]c12`, the IC50 in data set [3] is 130 nM.

`Cc1ccc(C2CCN(C(=O)N[C@H](Cc3cc(C)c4[nH]ncc4c3)C(=O)N3CCC(N4CCCCC4)CC3)CC2)cc1`: the IC50 in data set [3] is 240 nM.

For the compound `Cc1cc(C[C@@H](NC(=O)N2CCN(c3ccc(Cl)c(Cl)c3)CC2)C(=O)N2CCC(N3CCCCC3)CC2)cc2cn[nH]c12`, in data set [3], the IC50 is 12 nM.

In the case of `Cc1ccccc1C1CCN(C(=O)N[C@H](Cc2cc(C)c3[nH]ncc3c2)C(=O)N2CCC(N3CCCCC3)CC2)CC1`, in data set [3], the half-maximal inhibitory concentration (IC50) was 170 nM.

Consider `Cc1cc(C[C@@H](NC(=O)N2CCN(c3ccccc3C#N)CC2)C(=O)N2CCC(N3CCCCC3)CC2)cc2cn[nH]c12`, for which, in data set [3], the IC50 was 8.9 nM.

With `Cc1cc(C[C@@H](NC(=O)N2CCC(c3cc4ccccc4cc3C#N)CC2)C(=O)N2CCC(N3CCCCC3)CC2)cc2cn[nH]c12`, the IC50 in data set [3] was 0.11 nM.

For the compound `COC(=O)c1ccccc1N1CCN(C(=O)N[C@H](Cc2cc(C)c3[nH]ncc3c2)C(=O)N2CCC(N3CCCCC3)CC2)CC1`, in data set [3], the IC50 was 110 nM.

With `Cc1cc(C[C@@H](NC(=O)N2CCC(N3Cc4cccc(F)c4NC3=O)CC2)C(=O)N2CCC(N3CCCCC3)CC2)cc2cn[nH]c12`, the Papp A→B in data set [1] is below 1.5 ×10⁻⁶ cm/s.

Take `Cc1cc(C[C@@H](NC(=O)N2CCN(c3ccccc3Br)CC2)C(=O)N2CCC(N3CCCCC3)CC2)cc2cn[nH]c12`: the IC50 in data set [3] is 12 nM. In addition, the Papp A→B in data set [1] was 5.6 ×10⁻⁶ cm/s. The result in data set [4] was Active. Further, the Papp in data set [2] turned out to be 3.5 ×10⁻⁶ cm/s.

On to `Cc1ccc(C2CCN(C(=O)N[C@H](Cc3cc(C)c4[nH]ncc4c3)C(=O)N3CCC(N4CCCCC4)CC3)CC2)c(Cl)c1`, for which the IC50 in data set [3] was 16 nM. Besides, the Papp A→B in data set [1] is below 1.5 ×10⁻⁶ cm/s. Moreover, in data set [4], the outcome was Active. In addition, the Papp in data set [2] amounted to 12 ×10⁻⁶ cm/s.

Turning to `Cc1cc(C[C@@H](NC(=O)N2CCC(c3ccccc3Cl)CC2)C(=O)N2CCC(N3CCCCC3)CC2)cc2cn[nH]c12`, the IC50 in data set [3] was 9.8 nM.

In the case of `Cc1cc(C[C@@H](NC(=O)N2CCN(c3ccc(S(C)(=O)=O)cc3Cl)CC2)C(=O)N2CCC(N3CCCCC3)CC2)cc2cn[nH]c12`, the IC50 in data set [3] was 7 nM.

Regarding `Cc1cc(C[C@@H](NC(=O)N2CCC(c3ccccc3F)CC2)C(=O)N2CCC(N3CCCCC3)CC2)cc2cn[nH]c12`, the IC50 in data set [3] was 170 nM.

As for `Cc1cc(C[C@@H](NC(=O)N2CCN(c3ccc(Br)cc3)CC2)C(=O)N2CCC(N3CCCCC3)CC2)cc2cn[nH]c12`, in data set [3], the IC50 is 33 nM. In addition, the Papp A→B in data set [1] was below 1.5 ×10⁻⁶ cm/s. In addition, in data set [4], the result was Active. Also, the Papp in data set [2] came out at 5.2 ×10⁻⁶ cm/s.

`Cc1cc(C[C@@H](NC(=O)N2CCC(c3cccc4ccccc34)CC2)C(=O)N2CCC(N3CCCCC3)CC2)cc2cn[nH]c12`: the IC50 in data set [3] is 430 nM.

For `Cc1cc(C[C@@H](NC(=O)N2CCC(c3ccc(Br)cc3)CC2)C(=O)N2CCC(N3CCCCC3)CC2)cc2cn[nH]c12`, the IC50 in data set [3] was 13 nM.

(Values after ChEMBL document CHEMBL3769346, “Synthesis and SAR of calcitonin gene-related peptide (CGRP) antagonists containing substituted aryl-piperazines and piperidines” (Bioorg Med Chem Lett, 2016).)
